Experimental data: patent publication US7662851B2, “Use of specific cyklolignans” (Axelar AB, priority 2001, dated 2010)

Experiments:
Format in all cases: cell-based
[1] = tested on: platelet-derived growth factor receptor (PDGFR); test: Tyrosine phosphorylation of PDGFR in intact FM55 melanoma cells; conditions: 0.05 μM, 1 h
Description: (§1) Cells were cultured to subconfluency in 6-cm plates, and then fresh medium containing 10% FBS and the desired compounds were added for 1 h. The cells were then lyzed and subjected to immunoprecipitation using specific antibodies. Immunoprecipitates were resolved by sodium dodecyl sulphate polyacrylamide gel electrophoresis (SDS-PAGE) and transferred to nitro-cellulose membranes and incubated with anti-phosphotyrosine antibody. Antibodies to actin (in cell extract) or IGF-1R beta subunit were used as loading controls. After detection the films were scanned for quantification.
(§2) FM55 melanoma cells were cultured in the same way as described in Experiment 1. When reaching a density of 65,000 cells/cm^2 in the dishes, they were treated for 1 h with 0 (control) and 0.05 μM of picropodophyllin and podophyllotoxin, respectively. The cells were then isolated and subjected to immunoprecipitation of the IGF-1R, fibroblast growth factor receptor (FGFR), platelet-derived growth factor receptor (PDGFR), epidermal growth factor receptor (EGFR), insulin receptor (IR) and insulin substrate-1 (IRS-1) using antibodies to respective molecules. IRS-1 is a substrate of IGF-1R, and therefore its phosphorylation is dependent on phosphorylated IGF-1R. Gelelectrophoresis, Western blotting and quantification of the different signals were performed as described above.

[2] = target: T1, epidermal growth factor receptor (EGFR) (Homo sapiens, UniProt P00533); test: Tyrosine phosphorylation of EGFR in intact FM55 melanoma cells; conditions: 0.05 μM, 1 h
T1 construct: endogenous in cells; host or cells: FM55 melanoma cells
Description: as §1, §2

[3] = tested on: insulin substrate-1 (IRS-1); test: Phosphorylation of IRS-1 in intact FM55 melanoma cells; conditions: 0.05 μM, 1 h
Description: as §1, §2

IGF-1R [4] = target: T2, IGF-1R (Homo sapiens, UniProt P08069); test: Tyrosine phosphorylation of IGF-1R in intact FM55 melanoma cells; parameters: endogenous in cells; conditions: 0.05 μM, 1 h; for Level of phosphorylation in intact cells, substrate IGF-1R: FM55 cells, Experiment 3; for Level of IGF-1R phosphorylation in intact cells: FM55 melanoma cells, means of 3 experiments
Description: as §1
The isolated cells were then lyzed in 10 ml ice-cold PBSTDS containing protease inhibitors (Carlberg, M., et al., J Biol Chem 271:17453-17462, 1996). 50 μl protein A or G agarose was added in 1 ml sample and incubated for 15 min at 4° C. on an orbital shaker. After centrifugation for 10 min at 10,000 r/min at 4° C. the supernatant was saved. The protein content was determined by a dye-binding assay with a reagent purchased from Bio-Rad. Bovine serum albumin was used as a standard. 15 μl Protein G Plus agarose and 5 μl anti-IGF-1R were added. After a 3 h incubation at 4° C. on an orbital shaker the precipitate was collected by pulse centrifugation in a micro centrifuge at 14,000×g for 10 s. The supernatant was discarded and the pellet was washed 3 times with PBSTDS.
Protein samples were solved in a 2×-sample buffer containing Laemmli buffer and 0.5% […] and boiled for 5 min at 96° C. Samples were separated by SDS-PAGE with a 4% stacking gel and 7.5% separation gel. Molecular weight markers (Bio Rad, Sweden) were run simultaneously in all experiments.
Following SDS-PAGE the proteins were transferred overnight to nitro-cellulose membranes (Hybond, Amersham, UK) and then blocked for 1 h at room temperature in a solution of 4% skimmed milk powder and 0.02% Tween 20 in PBS, pH 7.5. Incubations with the primary antibodies were performed for 1 h at room temperature, followed by 3 washes with PBS with Tween and incubation with the second antibody for 1 h room temperature. After another 3 washes the membranes were incubated with Streptavidin-labelled horseradish peroxidase for 30 min and then detected using Amersham ECL system (Amersham, UK). The films were scanned by Fluor-S (BioRad).
FM55 melanoma cells were seeded in 6-cm dishes, at a concentration of 10,000 cells/cm^2 in Minimal Essential Medium supplemented with 10% fetal calf serum (FCS). When the cells reached a density of 65,000 cells/cm^2 in the dishes, they were treated for 1 h with 0.05 μM podophyllotoxin, deoxypodophyllotoxin, picropodophyllin, deoxypicropodophyllin, 4′-demethyl-7-(4,6-O-ethylidene-β-D-glucopyranosyl)epipodophyllotoxin (etoposide) and podophyllotoxin-4,6-O-benzylidene-β-D-glucopyranoside (pf-4,6-O). Etoposide and pf-4,6-O were also administered at 15 μM. The cells were then harvested for assay and quantification of IGF-1R phosphorylation as described in Experiment 1. The values shown in Table 1 represent means of 3 experiments.
as §2

IGF-1R [5] = target: T2, IGF-1R; test: IGF-1R phosphorylation in various malignant cell types (EC50); parameters: endogenous in cells; host or cells: 12 malignant cell lines (e.g. SK-MEL-2, SK-MEL-5, SK-MEL-28); conditions: 1 h
Description: as §1
12 cell lines of different origins were seeded in 6-cm dishes, at a concentration of 10,000 cells/cm^2 in Minimal Essential Medium supplemented with fetal calf serum (FCS). When the cells had reached a concentration of 65,000 cells/cm^2, they were treated with 0, 0.01, 0.025, 0.05, 0.1 or 1.0 uM doses of podophyllotoxin and picropodophyllin for 1 h. The cells were then harvested for assay and quantification of IGF-1R phosphorylation as described above. The EC50 value, the Efficient Concentration 50%, i.e. the concentration needed to reduce the phosphorylation with 50%, for each inhibitor and cell line, is then calculated. The results are based on two different experiments.

[6] = P6 fibroblasts with overexpressed IGF-1R

T2 sequence (P08069 31-1367): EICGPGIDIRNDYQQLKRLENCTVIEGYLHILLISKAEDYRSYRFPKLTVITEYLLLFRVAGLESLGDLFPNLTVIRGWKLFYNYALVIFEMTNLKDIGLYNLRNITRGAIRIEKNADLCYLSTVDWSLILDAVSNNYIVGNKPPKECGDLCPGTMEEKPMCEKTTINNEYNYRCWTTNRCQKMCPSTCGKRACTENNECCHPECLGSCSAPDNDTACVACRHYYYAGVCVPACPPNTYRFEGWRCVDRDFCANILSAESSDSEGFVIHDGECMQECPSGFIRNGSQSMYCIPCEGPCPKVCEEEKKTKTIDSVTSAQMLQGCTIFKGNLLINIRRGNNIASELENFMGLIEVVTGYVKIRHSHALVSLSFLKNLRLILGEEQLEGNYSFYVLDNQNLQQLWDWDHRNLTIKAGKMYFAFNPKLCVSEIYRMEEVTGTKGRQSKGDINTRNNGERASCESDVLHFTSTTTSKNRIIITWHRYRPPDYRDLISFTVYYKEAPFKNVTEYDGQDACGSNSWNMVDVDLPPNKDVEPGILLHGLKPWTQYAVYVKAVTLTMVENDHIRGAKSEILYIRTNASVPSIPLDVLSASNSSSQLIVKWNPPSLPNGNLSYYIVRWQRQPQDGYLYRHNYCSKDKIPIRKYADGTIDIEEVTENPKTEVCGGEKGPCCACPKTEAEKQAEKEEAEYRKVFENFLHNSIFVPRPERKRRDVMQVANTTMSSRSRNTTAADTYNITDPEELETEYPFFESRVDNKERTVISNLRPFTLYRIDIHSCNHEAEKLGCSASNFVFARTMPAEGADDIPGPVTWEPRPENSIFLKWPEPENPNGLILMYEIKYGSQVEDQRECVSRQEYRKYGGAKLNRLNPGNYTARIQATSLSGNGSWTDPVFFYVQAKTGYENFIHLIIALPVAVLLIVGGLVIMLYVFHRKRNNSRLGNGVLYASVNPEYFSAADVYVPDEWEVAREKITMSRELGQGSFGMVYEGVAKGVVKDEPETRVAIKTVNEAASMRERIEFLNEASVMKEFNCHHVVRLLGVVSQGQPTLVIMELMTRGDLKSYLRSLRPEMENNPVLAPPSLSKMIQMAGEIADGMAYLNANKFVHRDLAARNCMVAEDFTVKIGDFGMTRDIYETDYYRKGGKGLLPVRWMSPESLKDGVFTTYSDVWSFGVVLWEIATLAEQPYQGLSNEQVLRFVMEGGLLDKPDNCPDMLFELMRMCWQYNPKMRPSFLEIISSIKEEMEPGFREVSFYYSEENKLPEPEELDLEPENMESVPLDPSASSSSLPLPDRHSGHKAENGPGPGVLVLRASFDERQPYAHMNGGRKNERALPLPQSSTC
T1 sequence (P00533 25-1210): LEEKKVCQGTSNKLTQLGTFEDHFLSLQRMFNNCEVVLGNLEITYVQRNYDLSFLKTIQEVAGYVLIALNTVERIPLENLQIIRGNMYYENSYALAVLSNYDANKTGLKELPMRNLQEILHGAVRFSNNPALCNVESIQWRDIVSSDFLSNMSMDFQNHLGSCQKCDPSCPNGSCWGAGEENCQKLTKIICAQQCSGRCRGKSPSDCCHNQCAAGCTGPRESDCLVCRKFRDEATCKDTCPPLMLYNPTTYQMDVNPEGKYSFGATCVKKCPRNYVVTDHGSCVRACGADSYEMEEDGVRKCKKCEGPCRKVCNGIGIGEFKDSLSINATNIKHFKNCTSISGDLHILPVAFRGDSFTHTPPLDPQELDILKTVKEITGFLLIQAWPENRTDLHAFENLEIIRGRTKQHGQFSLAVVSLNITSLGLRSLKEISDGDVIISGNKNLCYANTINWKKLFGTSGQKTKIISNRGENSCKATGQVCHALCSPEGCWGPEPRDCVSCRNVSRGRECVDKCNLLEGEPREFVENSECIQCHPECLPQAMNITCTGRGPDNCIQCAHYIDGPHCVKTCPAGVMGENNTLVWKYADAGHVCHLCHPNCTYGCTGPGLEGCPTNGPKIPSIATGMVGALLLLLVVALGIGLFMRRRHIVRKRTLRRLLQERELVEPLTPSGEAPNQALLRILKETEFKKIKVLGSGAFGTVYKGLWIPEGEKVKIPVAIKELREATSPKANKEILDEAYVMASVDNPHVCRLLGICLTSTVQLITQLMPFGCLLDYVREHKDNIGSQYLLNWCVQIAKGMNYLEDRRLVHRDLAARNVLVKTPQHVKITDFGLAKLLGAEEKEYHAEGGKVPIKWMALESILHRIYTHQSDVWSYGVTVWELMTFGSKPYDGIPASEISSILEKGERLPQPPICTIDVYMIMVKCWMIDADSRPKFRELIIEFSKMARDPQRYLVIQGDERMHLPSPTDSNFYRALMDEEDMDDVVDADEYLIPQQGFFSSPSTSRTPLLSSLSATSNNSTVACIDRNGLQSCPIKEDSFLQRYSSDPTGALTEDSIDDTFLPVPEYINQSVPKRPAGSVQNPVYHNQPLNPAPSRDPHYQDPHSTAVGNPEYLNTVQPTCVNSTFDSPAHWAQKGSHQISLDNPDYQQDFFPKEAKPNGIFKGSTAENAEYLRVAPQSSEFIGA

Row | SMILES | Level of phosphorylation in intact cells, substrate PDGFR [1] [% OD] | Level of phosphorylation in intact cells, substrate EGFR [2] [% OD] | Level of phosphorylation in intact cells, substrate IRS-1 [3] [% OD] | Level of phosphorylation in intact cells, substrate IGF-1R (IGF-1R [4]) [% OD] | Level of IGF-1R phosphorylation in intact cells (IGF-1R [4]) [% OD] | EC50 (IGF-1R [5]; BE melanoma) [nM] | EC50 (IGF-1R [5]; DWB melanoma) [nM] | EC50 (IGF-1R [5]; FM55 melanoma) [nM] | EC50 (IGF-1R [5]; MCF-7 breast cancer) [nM] | EC50 (IGF-1R [5]; [6]) [nM] | EC50 (IGF-1R [5]; PC-3 prostate cancer) [nM] | EC50 (IGF-1R [5]; RD-ES Ewing's sarcoma) [nM] | EC50 (IGF-1R [5]; SK-MEL-2 melanoma) [nM] | EC50 (IGF-1R [5]; SK-MEL-5 melanoma) [nM] | EC50 (IGF-1R [5]; SK-MEL-28 melanoma) [nM]
1 | COc1cc([C@@H]2c3cc4c(cc3[C@H](O)[C@H]3COC(=O)[C@H]23)OCO4)cc(OC)c1OC [Podophyllotoxin, podophyllotoxin] | 100 | 107 | 10 | 7 | 5 | 40 | 30 | 40 | 50 | 20 | 60 | 30 | 40 | 30 | 30
2 | COc1cc([C@@H]2c3cc4c(cc3[C@H](O)[C@H]3COC(=O)[C@@H]23)OCO4)cc(OC)c1OC [Picropodophyllin, picropodophyllin] | 104 | 106 | 17 | 20 | 8 | – | – | 60 | 40 | 30 | 90 | 50 | – | 40 | 40
